Source: US8772237B2, “Compositions and methods for counteracting effects of reactive oxygen species and free radicals” (Ischemix, Inc., priority 1999, dated 2014)
Ends that are not written are not given here. * marks the point of attachment. Palmitoyl = CCCCCCCCCCCCCCCC(=O)*; Gga = not defined here

Columns and labels:
[1] = system: superoxide dismutase (SOD) protein; test: Western immunoblot of SOD protein in rat brain primary cortical cultures; assay type: cell-based; details: for SOD: 5 hours at 37° C.
Description: Primary cortical cultures were obtained by growing newborn rat brain cortical cells in Delbecco's modified Eagle medium supplemented with 25 μg/ml of gentamycin and 10% fetal calf serum. The cells were isolated from the E-21 cortex of rat brain, plated at a density of 1×10^5 per ml and grown to confluence within four to five days in an atmosphere containing air and 5% CO2 at 37° C. as described in Cornell-Bell et al., Science, 247: 470-473 (1990) and Cell Calcium, 12: 185-204 (1991). Cultures were grown in 20 ml flasks as a monolayer and then exposed to various concentrations of peptides for studies of the effects of peptides on upregulation of genes for SOD and CAT and on the transmigration of transcription factor AP-1 to cell nuclei. […]
(§1) Tissue culture experiments were carried out using primary cultures of rat brain cortical cells as previously described above in Example 2. Primary cultures from embryonic rat brain isolated at E-21 (21 day embryos) and incubated for five hours with various doses: 1, 10, 100 ng/ml of CMX-99672. Cytoplasmic proteins were isolated and analyzed for upregulation of SOD and CAT by Western immunoblots as described above. […] The Western blot was scanned to quantify the fold-increase in SOD production in cell cultures treated with the CMX-99672 peptide compound.
Representative peptide compounds were tested at various doses and compared for their ability to upregulate expression of genes for SOD and/or CAT in rat primary cortical cultures basically as described above. Cultures were incubated with a peptide compound for 5 hours at 37° C. Cytoplasmic protein fractions were prepared as described above. Cytoplasmic proteins were separated by gel electrophoresis and analyzed by Western immunoblots using antisera to SOD and CAT, respectively (Rockland, Inc., Gilbertsville, Pa.). […]

catalase (CAT) protein = test: Western immunoblot of CAT protein in rat primary cortical cultures; assay type: cell-based; details: for CAT: 5 hours at 37° C.
Description: as §1
Representative peptide compounds were tested at various doses and compared for their ability to upregulate expression of genes for SOD and/or CAT in rat primary cortical cultures basically as described above. Cultures were incubated with a peptide compound for 5 hours at 37° C. Cytoplasmic protein fractions were prepared as described above. Cytoplasmic proteins were separated by gel electrophoresis and analyzed by Western immunoblots using antisera to SOD and CAT, respectively (Rockland, Inc., Gilbertsville, Pa.).

[2] = system: middle cerebral artery (MCA) permanent occlusion stroke model; test: Permanent MCA 24-hour occlusion stroke model; assay type: in vivo, Sprague-Dawley rats
[3] = system: transcription factor AP-1; test: Electrophoretic mobility shift assay (EMSA) for AP-1 activation in primary rat neurons / cortical cultures; assay type: cell-based
Description: Nuclear extracts for electrophoretic mobility shift assays (EMSAs) were prepared as described previously (Adams et al., J. Leukocyte Biol., 62: 865-873 (1997)) using 1.0-2.0×10^7 cells per sample. All buffers were freshly supplemented with dithiothreitol (DTT, 0.5 mM), protease inhibitors: PMSF (0.5 mM), chymostatin, peptstatin-A, aprotinin, antipain, leupeptin (each at 1 μg/ml), and phosphatase inhibitors: NaF (10 mM), ZnCl2 (1 mM), sodium orthovanadate (1 mM), and sodium pyrophosphate (5 mM). Aliquots of the final dialyzates were stored at −80° C. and discarded after use.
AP-1 transcription factor activation was assayed using an electrophoretic mobility shift assay (EMSA), as described by Adams et al., J. Leukoc. Biol., 62:865-873 (1997)). Cultures of primary rat neurons (Cornell-Bell et al., Cell Calcium, 12: 185-204 (1991)) were stimulated for 3 hours with various concentrations (0, 1, 10, 100 ng/ml) of peptide CMX-9236. Nuclear extracts prepared as described above were separated by gel electophoresis on non-denaturing gels and subjected to the EMSA procedure. This EMSA used an AP-1 synthetic duplex probe (Angel, P., 1987, Cell 49:729-739) having the sequence 5′-[…] (SEQ ID NO:33) and its antisense copy (complement strand), which were end-labeled with P^32 using polynucleotide kinase and (γ-P^32)-ATP. For the EMSA reaction, the labeled probe (0.5 pmol) was mixed with 3 μg of nuclear extract protein in a solution containing 10 mM Tris-HCl, pH 7.5, 50 mM NaCl, 1 mM EDTA, 1 mM dithiothreitol, 5% glycerol, 0.02% β-mercaptoethanol, and 1 μg of poly-dI/dC (Pharmacia). Reaction mixtures were incubated at 25° C. for 20 minutes to allow complete complex formation by the duplex with its appropriate AP-1 protein. The mixture was then electrophoresed under non-denaturing conditions through 4% polyacrylamide gels in 0.5×TBE buffer (45 mM Trisma base, 45 mM boric acid, 1 mM EDTA). The gels were dried on 3 mm paper. Bands were visualized by autoradiography at −80° C. with one intensifying screen and quantified by laser densitometry. The upregulation of AP-1 and the activation and upregulation process of AP-1 was compared to control cultures.
Primary cortical cell cultures were grown to confluence and used in in vitro cultures for determining the effects of various representative peptide compounds on upregulation of AP-1. […] Extracts were prepared from the nuclei isolated from the primary culture homogenates, purified, and analyzed for the presence of specific transcription factors using the electrophoretic mobility shift assay (EMSA) method. The binding of ^32P-labeled duplex DNA probes specific for activator protein-1 (AP-1) or nuclear factor κB (NF-κB) was analyzed and quantified by autoradiography. After a 3-hour incubation of the cultures with 1 ng/ml of the peptide CMX-9236 there was a 15-fold increase of AP-1 relative to […] control cultures. […] Thus, a small peptide compound that is less than 20 amino acids long can simulate the properties of large growth factors such as NGF and BDNF, which exist as dimers of protein chains with molecular weights of 13,259 and 13,500, respectively.

[4] = system: Superoxide Dismutase (SOD); test: In vivo upregulation of SOD in rat organs (Western immunoblot); design: species or system Sprague-Dawley rats; details: for SOD Activity: 6-hour treatment, 10 mg/kg i.v.
Description: In vivo experiments were carried out in Sprague-Dawley rats (300-325 g) with solutions of CMX-1152 or CMX-99672. The animals were injected intravenously (iv) via the tail vein with a peptide compound. […] The animals were sacrificed by decapitation at 6, 12, 24, 48, and 72 hours post injection and dissected to isolate brain, liver, heart, kidney, lung organs, which were frozen at −70° C. for subsequent analysis. In addition, 2 ml samples of whole blood were taken from each animal. Half (1 ml) of each sample was centrifuged to remove nuclei and cell membranes to yield plasma. The remaining half was stored frozen as whole blood at −70° C.
Each tissue was thawed and homogenized in a Down's homogenizer using ten volumes of homogenizer buffer (see, Adams et al., General Cellular Biochemistry, 77: 221-233 (2000); buffer as described in Adams et al., J. Leukoc. Biol., 62: 865-875 (1967)) to obtain a crude cytoplasmic fraction. The tissue homogenates were centrifuged (14,000×g for 5 minutes at 4° C.) to yield the supernatant purified cytoplasmic protein fractions as described in Adams et al. (J. Cell. Biochem., 77: 221-233 (2000)). A 10 μg sample of each protein fraction was then separated by SDS polyacrylamide gel electrophoresis (SDS-PAGE) and analyzed for SOD and CAT content by Western blot assay.
Control for measurement of unstimulated levels of SOD and CAT were obtained from two vehicle only (i.e., no peptide compound) injected rats that were sacrificed at 24 and 72 hours post injection. Both had essentially the same unstimulated levels of SOD and CAT. Standard quantities of each cytoplasmic fractions (10 μg) were loaded on a lane of a gel for electrophoretic separation and Western immunoblot analysis (Adams et al., J. Cell. Biochem., 77: 221-233 (2000)). The stained gels were photographed and scanned by laser densitometry to quantify intensities in comparison to enzyme levels for control vehicle treated rats.

[5] = five hours, doses 1, 10, 100 ng/ml

Substance: [Palm] Asp Gly Asp Gly Phe Ala (Palmitoyl-DGDGFA) [CMX-9960]
- SOD ([1]; Dose 6.7 pmol/ml): 527 % Control

Substance: KKQTLQFR
- SOD ([1]; Dose 95 pmol/ml): 350 % Control
- CAT (catalase (CAT) protein; Dose 95 pmol/ml): 400 % Control

Substance: [Ac] Asp Gly Asp Gly Phe Ala (Ac-DGDGFA) [CMX-99655]
- SOD ([1]; Dose 8 pmol/ml): 750 % Control
- CAT (catalase (CAT) protein; Dose 8 pmol/ml): 520 % Control

Substance: [DHA]-Lys Lys Asp Gly Asp Gly Asp Phe Ala Ile Asp Ala Pro Glu [CMX-9236D]
- Percent Neurological Rescue ([2]; Dose 0.03 mg/hr): 50 ± 18%
- Percent Rescue (percent decrease in infarct size vs vehicle controls) ([2]; Dose 0.03 mg/hr): 48 ± 12%

Substance: Asp Gly [CMX-99672]
- increase in SOD [1, 5]: approximately 30 fold
- increase in SOD-related protein [1, 5]: ~20 fold
- upregulation of CAT (in words) (catalase (CAT) protein; [5]): Comparable data was obtained for CAT

Substance: [Ac] Thr Val Ser [CMX-99647]
- SOD ([1]; Dose 6.7 pmol/ml): 2066 % Control

Substance: KKDGDGDFA [CMX-9902]
- upregulation of SOD proteins (in words) ([1]; culture in vitro studies): upregulated SOD proteins
- Percent Neurological Rescue ([2]; Dose 0.05 mg/hr): 35 ± 12%
- Percent Rescue (percent decrease in infarct size vs vehicle controls) ([2]; Dose 0.05 mg/hr): 29 ± 7%
- activation / upregulation of AP-1 (in words) [3]: increased nuclear migration of AP-1

Substance: Asp Gly [CMX-1152]
- SOD ([1]; Dose 6.7 pmol/ml): 2143 % Control
- SOD Upregulation ([1]; Dose 1 ng/ml): 170 % Control
- SOD Upregulation ([1]; Dose 10 ng/ml): 330 % Control
- SOD Upregulation ([1]; Dose 100 ng/ml): 420 % Control
- SOD Activity ([4]; Brain): 520 % of Control
- SOD Activity ([4]; Heart): 550 % of Control
- SOD Activity ([4]; Kidney): 200 % of Control
- SOD Activity ([4]; Liver): 200 % of Control
- SOD Activity ([4]; Lung): 520 % of Control
- SOD Activity ([4]; Plasma): 420 % of Control
- SOD Activity ([4]; Whole Blood): 490 % of Control
- upregulation in SOD production relative to control ([4]; brain, heart, lung, and blood): four to five-fold
- upregulation in SOD production relative to control ([4]; liver and kidney): approximately two-fold

Substance: [Gga] Asp Gly Asp Gly Phe Ala (Gga-DGDGFA; not fully specified; printed as [Gga] Asp Gly Asp Gly Phe Ala; reading uncertain) [CMX-99661]
- SOD ([1]; Dose 6.7 pmol/ml): 463 % Control
